According to ChEMBL document CHEMBL3758095, “Preliminary evaluation of fluoro-pegylated benzyloxybenzenes for quantification of β-amyloid plaques by positron emission tomography” (Eur J Med Chem, 2015):
The source made the active and inactive calls. The rule behind the calls is not given here.

Tests used:
[1] = molecular target: T1, Amyloid-beta precursor protein (Homo sapiens, UniProt P05067); test: Displacement of [125I]BOB-4 from Amyloid beta (1 to 42) (unknown origin)
[2] = molecular target: T1, Amyloid-beta precursor protein; test: Binding affinity to amyloid beta plaques in healthy human brain by DANIR 3b staining based autoradiographic analysis; settings: tested as the 18F-labelled form
[3] = molecular target: T1, Amyloid-beta precursor protein; test: Binding affinity to amyloid beta plaques in white matter of alzheimer's disease patient brain by DANIR 3b staining based autoradiographic analysis; assay type: tissue-based; settings: tested as the 18F-labelled form
Mus musculus [4] = test: In vivo binding affinity to amyloid beta plaques in C57BL6 Appswe/PSEN1 Tg mouse cerebellum at 1 mCi, iv after 20 mins by DANIR 3b staining based autoradiographic analysis; assay type: functional, organism-based; settings: tested as the 18F-labelled form
Mus musculus [5] = test: In vivo binding affinity to amyloid beta plaques in C57BL6 Appswe/PSEN1 Tg mouse brain cortex at 1 mCi, iv after 20 mins by DANIR 3b staining based autoradiographic analysis; assay type: functional, organism-based; settings: tested as the 18F-labelled form
Mus musculus [6] = species on record: Mus musculus; test: Binding affinity to amyloid beta plaques in C57BL6 mouse brain by DANIR 3b staining based autoradiographic analysis; assay type: tissue-based; settings: tested as the 18F-labelled form
Mus musculus [7] = test: In vivo binding affinity to amyloid beta plaques in C57BL6 Appswe/PSEN1 Tg mouse hippocampus at 1 mCi, iv after 20 mins by DANIR 3b staining based autoradiographic analysis; assay type: functional, organism-based; settings: tested as the 18F-labelled form
Mus musculus [8] = test: In vivo binding affinity to amyloid beta in wild type C57BL6 mouse hippocampus at 1 mCi, iv after 20 mins by DANIR 3b staining based autoradiographic analysis; assay type: functional, organism-based; settings: tested as the 18F-labelled form
Mus musculus [9] = species on record: Mus musculus; test: Binding affinity to amyloid beta plaques in white matter of C57BL6 APPswe/PSEN1 Tg mouse brain by DANIR 3b staining based autoradiography analysis; assay type: tissue-based; settings: tested as the 18F-labelled form
Mus musculus [10] = test: In vivo binding affinity to amyloid beta in wild type C57BL6 mouse cerebellum at 1 mCi, iv after 20 mins by DANIR 3b staining based autoradiographic analysis; assay type: functional, organism-based; settings: tested as the 18F-labelled form
Mus musculus [11] = test: In vivo binding affinity to amyloid beta in wild type C57BL6 mouse brain cortex at 1 mCi, iv after 20 mins by DANIR 3b staining based autoradiographic analysis; assay type: functional, organism-based; settings: tested as the 18F-labelled form
Mus musculus [12] = species on record: Mus musculus; test: Binding affinity to amyloid beta plaques in C57BL6 APPswe/PSEN1 Tg mouse cerebral cortex by DANIR 3b staining based autoradiographic analysis; assay type: tissue-based; settings: tested as the 18F-labelled form
[13] = molecular target: T1, Amyloid-beta precursor protein; test: Binding affinity to amyloid beta plaques in alzheimer's disease patient cerebral cortex by DANIR 3b staining based autoradiographic analysis; assay type: tissue-based; settings: tested as the 18F-labelled form
Brain [14] = test: Ratio of drug level in CD1 mouse brain at 370 kBq measured at 2 to 60 mins; assay type: ADME; settings: in vivo
Intestine [15] = test: Biodistribution in iv dosed ICR mouse intestine assessed per organ measured at 30 mins; assay type: ADME, organism-based; settings: in vivo, 0.5 h
Brain [16] = test: Ratio of drug level in iv dosed ICR mouse brain at 2 to 60 mins; assay type: ADME, organism-based; settings: in vivo
[17] = Metabolic stability in ICR mouse liver assessed as compound remaining at 35 to 45 Mbq, iv measured at 30 mins by HPLC analysis; assay type: ADME, organism-based; settings: read-out: Stability
[18] = Metabolic stability in ICR mouse plasma assessed as compound remaining at 35 to 45 Mbq, iv measured at 30 mins by HPLC analysis; assay type: ADME, organism-based; settings: read-out: Stability
Intestine [19] = test: Biodistribution in iv dosed ICR mouse intestine assessed per organ measured at 60 mins; assay type: ADME, organism-based; settings: in vivo, 1 h
Brain [20] = test: Biodistribution in iv dosed ICR mouse brain measured at 2 mins; assay type: ADME, organism-based; settings: in vivo
Liver [21] = test: Biodistribution in iv dosed ICR mouse liver measured at 10 mins; assay type: ADME, organism-based; settings: in vivo
[22] = Partition coefficient, log D of the compound; assay type: physicochemical; settings: octanol/water
[23] = Metabolic stability in ICR mouse brain assessed as compound remaining at 35 to 45 Mbq, iv measured at 60 mins by HPLC analysis; assay type: ADME, organism-based; settings: read-out: Stability
[24] = Metabolic stability in ICR mouse brain assessed as compound remaining at 35 to 45 Mbq, iv measured at 2 mins by HPLC analysis; assay type: ADME, organism-based; settings: read-out: Stability
[25] = Metabolic stability in ICR mouse plasma assessed as compound remaining at 35 to 45 Mbq, iv measured at 60 mins by HPLC analysis; assay type: ADME, organism-based; settings: read-out: Stability
Intestine [26] = test: Biodistribution in iv dosed ICR mouse intestine assessed per organ measured at 10 mins; assay type: ADME, organism-based; settings: in vivo
Intestine [27] = test: Biodistribution in iv dosed ICR mouse intestine assessed per organ measured at 2 mins; assay type: ADME, organism-based; settings: in vivo
Stomach [28] = test: Biodistribution in iv dosed ICR mouse stomach assessed per organ measured at 30 mins; assay type: ADME, organism-based; settings: in vivo, 0.5 h
[29] = Metabolic stability in ICR mouse feces assessed as compound remaining at 35 to 45 Mbq, iv measured at 30 mins by HPLC analysis; assay type: ADME, organism-based; settings: faeces, read-out: Stability
Stomach [30] = test: Biodistribution in iv dosed ICR mouse stomach assessed per organ measured at 60 mins; assay type: ADME, organism-based; settings: in vivo, 1 h
Stomach [31] = test: Biodistribution in iv dosed ICR mouse stomach assessed per organ measured at 2 mins; assay type: ADME, organism-based; settings: in vivo
[32] = Metabolic stability in ICR mouse brain assessed as compound remaining at 35 to 45 Mbq, iv measured at 30 mins by HPLC analysis; assay type: ADME, organism-based; settings: read-out: Stability
[33] = Metabolic stability in ICR mouse liver assessed as compound remaining at 35 to 45 Mbq, iv measured at 2 mins by HPLC analysis; assay type: ADME, organism-based; settings: read-out: Stability
[34] = Metabolic stability in ICR mouse plasma assessed as compound remaining at 35 to 45 Mbq, iv measured at 2 mins by HPLC analysis; assay type: ADME, organism-based; settings: read-out: Stability
[35] = Metabolic stability in ICR mouse liver assessed as compound remaining at 35 to 45 Mbq, iv measured at 60 mins by HPLC analysis; assay type: ADME, organism-based; settings: read-out: Stability
Stomach [36] = test: Biodistribution in iv dosed ICR mouse stomach assessed per organ measured at 10 mins; assay type: ADME, organism-based; settings: in vivo
Liver [37] = test: Retention time of the compound in ICR mouse liver at 35 to 45 Mbq, iv by HPLC analysis; assay type: ADME, organism-based
Plasma = test: Retention time of the compound in ICR mouse plasma at 35 to 45 Mbq, iv by HPLC analysis; assay type: ADME, organism-based

T1 sequence (P05067 whole entry): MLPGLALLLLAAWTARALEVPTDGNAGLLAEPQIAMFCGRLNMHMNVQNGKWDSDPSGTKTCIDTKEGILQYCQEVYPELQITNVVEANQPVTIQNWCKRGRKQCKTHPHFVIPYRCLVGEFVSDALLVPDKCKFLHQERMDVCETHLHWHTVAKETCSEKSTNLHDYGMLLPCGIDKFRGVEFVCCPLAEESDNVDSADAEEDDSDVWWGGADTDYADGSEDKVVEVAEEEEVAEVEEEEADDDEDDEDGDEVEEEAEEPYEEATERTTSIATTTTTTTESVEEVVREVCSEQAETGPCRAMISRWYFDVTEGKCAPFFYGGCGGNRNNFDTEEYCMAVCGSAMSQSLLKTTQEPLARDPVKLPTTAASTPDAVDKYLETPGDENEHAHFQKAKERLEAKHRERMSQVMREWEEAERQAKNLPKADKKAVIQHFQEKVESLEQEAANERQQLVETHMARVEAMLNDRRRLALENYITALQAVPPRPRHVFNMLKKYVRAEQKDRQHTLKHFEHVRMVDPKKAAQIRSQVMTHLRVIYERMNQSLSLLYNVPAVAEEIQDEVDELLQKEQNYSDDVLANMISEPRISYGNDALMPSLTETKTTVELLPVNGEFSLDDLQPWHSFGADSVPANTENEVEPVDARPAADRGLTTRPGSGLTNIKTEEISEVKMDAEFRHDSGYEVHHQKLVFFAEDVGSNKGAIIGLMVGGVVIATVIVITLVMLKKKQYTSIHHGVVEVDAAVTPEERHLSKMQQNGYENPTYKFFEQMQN

COc1ccc(COc2ccc(OCCOCCOCCF)cc2)cc1
Ki [1]: 770 nM
inhibition [1]: Dose-dependent effect

CN(C)c1ccc(-c2cn3cc(I)ccc3n2)cc1
inhibition [1]: Dose-dependent effect

COc1ccc(COc2ccc(OCCOCCF)cc2)cc1
Ki [1]: 438 nM
inhibition [1]: Dose-dependent effect

CN(C)c1ccc(OCc2ccc(OCCF)cc2)cc1
Activity [2]: inactive
Activity [3]: inactive
Activity (Mus musculus [4]): Active
Ki [1]: 21 nM
inhibition [1]: Dose-dependent effect
Activity (Mus musculus [5]): Active
Activity (Mus musculus [6]): inactive
Activity (Mus musculus [7]): Active
Activity (Mus musculus [8]): inactive
Activity (Mus musculus [9]): inactive
Activity (Mus musculus [10]): inactive
Activity (Mus musculus [11]): inactive
Activity (Mus musculus [12]): Active
Activity [13]: Active

CNc1ccc(/C=C/c2ccc(OCCOCCOCC[18F])nc2)cc1 [FLORBETAPIR F 18]
Ratio (Brain [14]): 3.9

CN(C)c1ccc(OCc2ccc(OCC[18F])cc2)cc1
Drug uptake (Intestine [15]): 5.63 %ID
Ratio (Brain [16]): 5.1
remaining at 0.5 h [17]: 9.2%
remaining at 0.5 h [18]: 5.8%
Drug uptake (Intestine [19]): 6.71 %ID
Drug uptake (Brain [20]): 9.14 % ID/g
Drug uptake (Liver [21]): 6.38 % ID/g
logD [22]: 2.75
remaining at 1 h [23]: 14.8%
remaining at 2 min [24]: 95.4%
remaining at 1 h [25]: 5.1%
Drug uptake (Intestine [26]): 5.16 %ID
Drug uptake (Intestine [27]): 5.49 %ID
Drug uptake (Stomach [28]): 4.69 %ID
remaining at 0.5 h [29]: 22.7%
Drug uptake (Stomach [30]): 3.58 %ID
Drug uptake (Stomach [31]): 2.48 %ID
remaining at 0.5 h [32]: 31.6%
remaining at 2 min [33]: 63.5%
remaining at 2 min [34]: 56.5%
remaining at 1 h [35]: 4.4%
Drug uptake (Stomach [36]): 4.11 %ID

COc1ccc(OCc2ccc(OCCF)cc2)cc1
Ki [1]: 153 nM
inhibition [1]: Dose-dependent effect

CN(C)c1ccc(COc2ccc(OCC[18F])cc2)cc1
Drug uptake (Intestine [15]): 2.35 %ID
remaining at 0.5 h [17]: 8.4%
Drug uptake (Intestine [19]): 1.72 %ID
Drug uptake (Brain [20]): 4.51 % ID/g
Drug uptake (Liver [21]): 3.23 % ID/g
logD [22]: 3.11
remaining at 1 h [23]: 16.7%
Retention_time (Liver [37]): 9.1 min
remaining at 2 min [24]: 76.7%
Drug uptake (Intestine [26]): 3.12 %ID
Drug uptake (Intestine [27]): 5.52 %ID
Drug uptake (Stomach [28]): 0.37 %ID
remaining at 0.5 h [29]: 14.6%
Drug uptake (Stomach [30]): 0.22 %ID
Drug uptake (Stomach [31]): 0.92 %ID
remaining at 0.5 h [32]: 20.6%
Retention_time (Plasma): 9.1 min
remaining at 2 min [33]: 22.6%
remaining at 2 min [34]: 10.8%
remaining at 1 h [35]: 10.6%
Drug uptake (Stomach [36]): 0.54 %ID

COc1ccc(COc2ccc(OCC[18F])cc2)cc1
Drug uptake (Intestine [15]): 7.66 %ID
Drug uptake (Intestine [19]): 13 %ID
Drug uptake (Brain [20]): 9.95 % ID/g
Drug uptake (Liver [21]): 7.47 % ID/g
logD [22]: 3.65
Drug uptake (Intestine [26]): 4.41 %ID
Drug uptake (Intestine [27]): 7.09 %ID
Drug uptake (Stomach [28]): 0.78 %ID
Drug uptake (Stomach [30]): 0.77 %ID
Drug uptake (Stomach [31]): 1.22 %ID
Drug uptake (Stomach [36]): 1.08 %ID

COc1ccc(COc2ccc(OCCOCCOCC[18F])cc2)cc1
Drug uptake (Intestine [15]): 16.43 %ID
Drug uptake (Intestine [19]): 26.12 %ID
Drug uptake (Brain [20]): 9.71 % ID/g
Drug uptake (Liver [21]): 11.16 % ID/g
logD [22]: 3.04
Drug uptake (Intestine [26]): 6.18 %ID
Drug uptake (Intestine [27]): 6.3 %ID
Drug uptake (Stomach [28]): 1.52 %ID
Drug uptake (Stomach [30]): 0.9 %ID
Drug uptake (Stomach [31]): 1.53 %ID
Drug uptake (Stomach [36]): 1.1 %ID

CNc1ccc(-c2nc3ccc(O)cc3s2)cc1
inhibition [1]: Dose-dependent effect

CN(C)c1ccc(COc2ccc(OCCF)cc2)cc1
Activity [2]: inactive
Activity [3]: inactive
Ki [1]: 25.7 nM
inhibition [1]: Dose-dependent effect
Activity (Mus musculus [6]): inactive
Activity (Mus musculus [9]): inactive
Activity (Mus musculus [12]): Active
Activity [13]: Active

CNc1ccc(/C=C/c2ccc(OCCOCCOCCF)nc2)cc1 [FLORBETAPIR]
Ki [1]: 11.4 nM
inhibition [1]: Dose-dependent effect

CN(C)c1ccc(COc2ccc(OCCOCCOCCF)cc2)cc1
Ki [1]: 358 nM
inhibition [1]: Dose-dependent effect

CN(C)c1ccc(COc2ccc(OCCOCCF)cc2)cc1
Ki [1]: 191 nM
inhibition [1]: Dose-dependent effect

COc1ccc(OCc2ccc(OCC[18F])cc2)cc1
Drug uptake (Intestine [15]): 6.85 %ID
Drug uptake (Intestine [19]): 10.75 %ID
Drug uptake (Brain [20]): 7.54 % ID/g
Drug uptake (Liver [21]): 4.97 % ID/g
logD [22]: 3.05
Drug uptake (Intestine [26]): 4.83 %ID
Drug uptake (Intestine [27]): 7.31 %ID
Drug uptake (Stomach [28]): 1.29 %ID
Drug uptake (Stomach [30]): 0.98 %ID
Drug uptake (Stomach [31]): 1.32 %ID
Drug uptake (Stomach [36]): 0.96 %ID

COc1ccc(COc2ccc(OCCF)cc2)cc1
Ki [1]: 119 nM
inhibition [1]: Dose-dependent effect
